Laboratory results: ChEMBL document CHEMBL5036338, “Structural Insights into the Inhibition of Undecaprenyl Pyrophosphate Synthase from Gram-Positive Bacteria” (2021)
Activity calls are given as the source filed them. The calls are words filed in the database; no cut-off is given here.

Legend:
Staphylococcus aureus [1] = experiment: Synergistic antibacterial activity against community acquired methicillin resistant Staphylococcus aureus USA300 incubated for 18 hrs by checkerboard broth microdilution assay; assay type: functional
Staphylococcus aureus [2] = experiment: Synergistic antibacterial activity against community acquired methicillin resistant Staphylococcus aureus USA300 assessed as fractional inhibitory concentration incubated for 18 hrs by checkerboard broth microdilution assay; assay type: functional
Staphylococcus aureus [3] = experiment: (§1) Synergistic antibacterial activity against community acquired methicillin resistant Staphylococcus aureus USA300 assessed as potentiation of cefuroxime-induced antibacterial activity by measuring cefuroxime MIC incubated for 18 hrs by checkerboard broth microdilution assay; assay type: functional
Staphylococcus aureus [4] = experiment: as §1, with “fractional inhibitory concentration” for “MIC”; assay type: functional
Staphylococcus aureus [5] = experiment: Synergistic antibacterial activity against community acquired methicillin resistant Staphylococcus aureus USA300 assessed as fractional inhibitory concentration index in presence of cefuroxime incubated for 18 hrs by checkerboard broth microdilution assay; assay type: functional
Staphylococcus aureus [6] = experiment: Inhibition of Staphylococcus aureus UPPS using FPP and IPP as substrates preincubated for 20 mins followed by substrate addition

## CCCc1cc(N2CCCCCC2)n2ncc(-c3ccc(F)cc3)c2n1
Staphylococcus aureus [1]
  MIC: > 128 µg/mL
Staphylococcus aureus [2]
  FIC: 0.0312
Staphylococcus aureus [3]
  MIC: > 32 µg/mL
Staphylococcus aureus [4]
  FIC: 0.0312
Staphylococcus aureus [5]
  fractional inhibitory concentration index (FICI): 0.0625

## CCc1cc(N2CCCCCC2)n2ncc(-c3ccc(F)cc3)c2n1
Staphylococcus aureus [1]
  MIC: > 128 µg/mL
Staphylococcus aureus [2]
  FIC: 0.0312
Staphylococcus aureus [3]
  MIC: > 32 µg/mL
Staphylococcus aureus [4]
  FIC: 0.0156
Staphylococcus aureus [5]
  fractional inhibitory concentration index (FICI): 0.0468

## CCN(CC)CCOc1ccc(/C(=C(/Cl)c2ccccc2)c2ccccc2)cc1 [ENCLOMIPHENE]
Staphylococcus aureus [1]
  MIC: 16 µg/mL
Staphylococcus aureus [2]
  FIC: 0.25
Staphylococcus aureus [3]
  MIC: 256 µg/mL
Staphylococcus aureus [4]
  FIC: 0.063
Staphylococcus aureus [5]
  fractional inhibitory concentration index (FICI): 0.313

## CCc1cc(N2CCCCCCC2)n2ncc(-c3ccc(F)cc3)c2n1
Staphylococcus aureus [1]
  MIC: > 128 µg/mL
Staphylococcus aureus [2]
  FIC: 0.125
Staphylococcus aureus [3]
  MIC: > 32 µg/mL
Staphylococcus aureus [4]
  FIC: 0.0625
Staphylococcus aureus [5]
  fractional inhibitory concentration index (FICI): 0.1875

## Cc1cc(N2CCCCCC2)n2ncc(-c3ccc(F)cc3)c2n1
Staphylococcus aureus [1]
  MIC: > 128 µg/mL
Staphylococcus aureus [2]
  FIC: 0.0625
Staphylococcus aureus [3]
  MIC: > 32 µg/mL
Staphylococcus aureus [4]
  FIC: 0.0156
Staphylococcus aureus [5]
  fractional inhibitory concentration index (FICI): 0.0781
Staphylococcus aureus [6]
  inhibition: Active

## Cc1cc(N2CCCCCC2)n2ncc(-c3cccc(F)c3)c2n1
Staphylococcus aureus [1]
  MIC: > 128 µg/mL
Staphylococcus aureus [2]
  FIC: 0.0625
Staphylococcus aureus [3]
  MIC: > 32 µg/mL
Staphylococcus aureus [4]
  FIC: 0.0312
Staphylococcus aureus [5]
  fractional inhibitory concentration index (FICI): 0.0937

## Cc1cc(N2CCCCCCC2)n2ncc(-c3ccc(F)cc3)c2n1
Staphylococcus aureus [1]
  MIC: > 128 µg/mL
Staphylococcus aureus [2]
  FIC: 0.0312
Staphylococcus aureus [3]
  MIC: > 32 µg/mL
Staphylococcus aureus [4]
  FIC: 0.0312
Staphylococcus aureus [5]
  fractional inhibitory concentration index (FICI): 0.0625

## Cc1cc(N2CCOCC2)n2ncc(-c3ccc(F)cc3)c2n1
Staphylococcus aureus [1]
  MIC: > 128 µg/mL
Staphylococcus aureus [2]
  FIC: 0.03125
Staphylococcus aureus [3]
  MIC: > 32 µg/mL
Staphylococcus aureus [4]
  FIC: 0.125
Staphylococcus aureus [5]
  fractional inhibitory concentration index (FICI): 0.156
